Article PMC3873415, “A Non-Biological Method for Screening Active Components against Influenza Virus from Traditional Chinese Medicine by Coupling a LC Column with Oseltamivir Molecularly Imprinted Polymers” (PLoS ONE, 2013)
“Also recorded” adds a separate entry of the source.

Experiments:
[1] = tested on: Influenza virus strain A/Goose/Dalian/3/2001 (H9N2); type: cell-based, avian influenza virus H9N2
[2] = tested on: Influenza virus strain A/Goose/Dalian/3/2001 (H9N2); type: cell-based, avian influenza virus H9N2; remark: listed apart in the source
[3] = tested on: avian influenza virus H9N2; type: cell-based
MDCK cells = settings: dog
Kunming mice = settings: cited from earlier work
enterovirus 71 [4] = settings: enterovirus 71 on rhabdomyosarcoma cells; cited from earlier work
enterovirus 71 [5] = settings: mice challenged with a lethal dose of enterovirus 71; cited from earlier work

Molecule: O=C1CCC[C@@H]2[C@H]3CCC[N+]4([O-])CCC[C@H](CN12)[C@@H]34 (stereo partly shown) [oxysophoridine]
- Activity: CPE [1]: No differences between all treatment and control groups
- Activity: HI [2]: No differences between all treatment and control groups
- Activity (see Table 1) qualitative [3]: 0
- Activity (see Table 1) semi-quantitative [3]: 0
- Activity against H9N2 in vitro (in words) [3]: did not show any similar bioactivities
- TCD0 (maximum non-toxic concentration) (MDCK cells): >2 mg/mL

Molecule: CCOC(=O)C1=C[C@@H](OC(CC)CC)[C@H](NC(C)=O)[C@@H](N)C1 [OS (template), Oseltamivir]
- Activity: CPE [1]: The CPE of 0.5mg/ml OS-treated group was more severe than viral control group within 48 h. The CPE of groups 0.25, 0.125 and 0.0625 mg/ml were milder than viral control at 72 h.
- Activity: HI [2]: No hemagglutination (H) was found in all tested groups at 24, 48 or 72 h.
- Activity (see Table 1) qualitative [3]: 1
- Activity (see Table 1) semi-quantitative [3]: 3
- Activity against H9N2 in vitro (in words) [3]: had activity of alleviating CPE and HI against H9N2 in vitro
- TCD0 (maximum non-toxic concentration) (MDCK cells): 0.5 mg/mL

Molecule: O=C1CCC[C@@H]2[C@H]3CCCN4CCC[C@H](CN12)[C@@H]34 [sophoridine]
- Activity: CPE [1]: The CPE of 2 mg/ml sophoridine-treated group was more severe than that of the viral control at 48 h. The CPE of other test groups with low concentration were consistent with that of the viral control at 48 h.
- Activity: HI [2]: had HI activity only at concentration of TCD0; also recorded: There was no H of 2 mg/ml sophoridine-treated group at any test time points. But the rest test groups had H at all test time points
- Activity (see Table 1) qualitative [3]: 1
- Activity (see Table 1) semi-quantitative [3]: 1
- Activity against H9N2 in vitro (in words) [3]: low
- TCD0 (maximum non-toxic concentration) (MDCK cells): >2 mg/mL

Molecule: O=C1CCC[C@@H]2[C@H]3CCCN4CCC[C@@H](CN12)[C@@H]34 [matrine]
- Activity: CPE [1]: could protect MDCK cells from H9N2 in a dose-dependent manner; also recorded: The CPE of 0.4, 0.2 and 0.1 mg/ml matrine groups were milder than that of the viral control group
- Activity: HI [2]: There was no H in 0.2 mg/ml matrine-treated group at 24 h and in 0.4mg/ml matrine-treated group at 24 or 48 h.
- Activity (see Table 1) qualitative [3]: 1
- Activity (see Table 1) semi-quantitative [3]: 3
- Activity against H9N2 in vitro (in words) [3]: had activity of alleviating CPE and HI against H9N2 in vitro and high
- TCD0 (maximum non-toxic concentration) (MDCK cells): 0.4 mg/mL
- LD50 (Kunming mice; Kunming mice, acute toxicity, 95% confidence limit 88.08-280.31 mg/kg): 157.13 mg/kg
- tolerable dose (Kunming mice; Kunming mice, acute toxicity): above 80 mg/kg
- Morphological observation (Kunming mice; brain tissue of mice): degenerative changes of the nerve cells in the brain tissue of the mice
- viral RNA copy number (enterovirus 71 [4]): could suppress the viral RNA copy number on rhabdomyosarcoma cells
- mortality and clinical symptoms (enterovirus 71 [5]): reduced the mortality and relieved clinical symptoms

Molecule: CC(=O)Oc1ccccc1C(=O)O [aspirin]
- Activity: CPE [1]: No differences between all treatment and control groups.
- Activity: HI [2]: No differences between all treatment and control groups.
- Activity (see Table 1) qualitative [3]: 0
- Activity (see Table 1) semi-quantitative [3]: 0
- TCD0 (maximum non-toxic concentration) (MDCK cells): >0.5 mg/mL

Molecule: phillyrin
- Activity: CPE [1]: could not alleviate CPE; also recorded: The CPE of 0.5 and 0.25 mg/ml phillyrin-treated groups were more severe than that of the viral control group within 48 h
- Activity: HI [2]: had HI activity; also recorded: There was no H in 0.25 mg/ml phillyrin-treated group at 24 h and in 0.5mg/ml phillyrin-treated group at 24 or 48 h
- Activity (see Table 1) qualitative [3]: 1
- Activity (see Table 1) semi-quantitative [3]: 1

Molecule: O=C(/C=C/c1ccc(O)c(O)c1)O[C@@H]1C[C@](O)(C(=O)O)C[C@@H](O)[C@H]1O [chlorogenic acid]
- Activity: CPE [1]: No differences between all treatment and control groups.
- Activity: HI [2]: No differences between all treatment and control groups.
- Activity (see Table 1) qualitative [3]: 0
- Activity (see Table 1) semi-quantitative [3]: 0
- TCD0 (maximum non-toxic concentration) (MDCK cells): 0.016 mg/mL

Molecule: O=C1CCC[C@@H]2[C@H]3CCC[N+]4([O-])CCC[C@@H](CN12)[C@@H]34 (stereo partly shown) [oxymatrine]
- Activity: CPE [1]: No differences between all treatment and control groups.
- Activity: HI [2]: No differences between all treatment and control groups.
- Activity (see Table 1) qualitative [3]: 0
- Activity (see Table 1) semi-quantitative [3]: 0
- Activity against H9N2 in vitro (in words) [3]: did not show any similar bioactivities
- TCD0 (maximum non-toxic concentration) (MDCK cells): >2 mg/mL
